Test results taken from patent US9034862B2, “Compositions and methods for the treatment of cancer” (priority 2011, dated 2015).

Key:
[1] = tested on: NTera2; assay: MTT assay, NTera2; type: cell-based, human; conditions: Table 3, NTera2 Testis, 72-h incubation
Protocol: Solutions of the platinum compounds were freshly prepared in sterile PBS before use and their concentrations quantitated by atomic absorption spectroscopy. Cells were seeded on a 96-well plate (1200 cells per well for cancer cells and 1800 cells per well for the normal lung fibroblasts) in 100 μL RPMI or DMEM media, and incubated for 24 h. […] The cells were then treated with 20 μL of 3-(4,5-dimethylthiazol-2-yl)-2,5-diphenyltetrazolium bromide (MTT) (5 mg/mL in PBS) and incubated for 4 h. The medium was removed, 100 μL of DMSO was added to the cells, and the absorbance of the purple formazan was recorded at 560 nm using a BioTek Synergy HT multi-detection microplate plate reader. Each condition was performed in triplicate and three independent experiments were carried out for each cell line.

[2] = tested on: pGLuc plasmid; assay: Platination of pGLuc plasmid; type: biochemical
Protocol: The resulting mixtures were dialyzed (molecular weight cut-off 3.5 kDa) against ddH2O overnight at 4° C. with five changes of ddH2O. The rb values (bound Pt/nucleotide) were determined by UV/Vis and atomic absorption spectroscopy.
In one embodiment, the ratio of bound platinum per plasmid was determined by measuring the Pt concentration by atomic absorption spectroscopy and the DNA concentration by UV/Vis spectroscopy.

[3] = tested on: GLuc expression in HT29 cells; assay: Transcription assay, globally platinated pGLuc, HT29; type: cell-based, human
Protocol: Transfection of transcription probes into A549 and HT29 cells with the pGLuc plasmid was carried out using liposomal transfecting agents. Determination of expression levels was tested by Luciferase assays monitored by a luminometer (J. Am. Chem. Soc. 2010, 132, 7429-7435). A549 cells were plated in 96-well plates at 2,000 cells/well and HT29 cells were plated in 96-well plates at 6,000 cells/well. After 48 h incubation (at ˜30% confluence), cells were transfected with 50 ng of platinated plasmids in 25 μL Opti-MEM and 0.125 μL Lipofectamine 2000, and subsequently 50 μL of antibiotics-free DMEM supplemented with 10% FBS. After 2 h, the cells were washed with medium and 100 μL of fresh medium was added. The experiment was carried out in quadruplicate.
GLuc activity was monitored using a luminescence plate reader (Synergy 2, BioTek, Winooski, Vt., USA). A 10 μL volume of medium at different time points (12, 24, 36, 48, 60 h) was transferred into opaque white 96-well plates, and 25 μL of GLuc assay solution (10 μM colelenterazine (NanoLight Technologies, Pinetop, Ariz., USA) in 2.5 mM acidified methanol (100 mM HCl), buffer (10 mM Tris-HCl pH 7.8, 1 mM EDTA, 0.6 M NaCl)) was added by the automatic injector of the instrument.
In another embodiment, A549 or HT29 cells were transfected using the platinated transcription probes, and transcription levels were investigated by determining GLuc expression as measured by […] following addition of coelenterazine as a substrate for the exported enzyme. The emission intensities were normalized against unplatinated plasmids as a control. Transcription profiles were obtained by plotting normalized levels of GLuc expression against platination levels (Pt/plasmid ratio) at five different time points. […] An increase in D0 value at different time points represents restoration of transcription.

[4] = tested on: Gaussia luciferase expression in A549 cells; conditions: ratio of recovery of transcription level vs. time
Protocol: (§1) Vector Construction and Preparation. […] Preparation of Platinated Insertion Strand. […] The suspension was centrifuged. To a solution of 0.2 mM 16-mer oligonucleotide 5′-[…]*[…] The reaction mixture was incubated in the dark at 37° C. overnight. The reaction was stopped when the solution was frozen. […] After purification, the platinated DNA solution was dialyzed against H2O and lyophilized. […] The insertion strand was further analyzed for nucleotide composition by nuclease S1 digestion to confirm the platination site following a protocol published previously (Table 13) (e.g., see J Am Chem Soc 2007, 129, 6370-6371). The platinated and unplatinated DNA strands (40 μM) were phosphorylated by T4 PNK (0.67 U/μL) at 37° C. for 3 h, followed by a phenol/chloroform/isoamyl alcohol extraction to remove the enzyme. The phosphorylated DNA strands were ethanol precipitated and stored in −80° C. at a concentration of 100 pmol/μL.
(§2) Briefly, a 600 μg quantity of pGLuc8temG plasmid was digested with 30 U Nt.BbvCI at 37° C. for 1 h. The reaction mixture was heated at 80° C. for 20 min to deactivate the enzyme, followed by a phenol/chloroform/isoamyl alcohol extraction to remove the enzyme. The mixture was dialyzed against H2O overnight at 4° C. The plasmid was further digested with 30 U Nt.BspQI at 50° C. for 1 h, and the enzyme was heat-deactivated and removed by a phenol/chloroform/isoamyl alcohol extraction. The nicked plasmid was mixed with 1,000 equiv of complementary DNA strand 5′-[…] (SEQ ID NO: 2) in a buffer of 10 mM Tris-HCl, 2 mM MgCl2, 0.4 M NaCl, pH 7.4, heated at 80° C. for 5 min, and subsequently cooled at 4° C. for 5 min for 10 cycles. […] A 120 μg quantity of the gapped plasmid was annealed with 100 equiv of the insertion strand in a buffer of 10 mM Tris-HCl, 2 mM MgCl2, 0.4 M NaCl, pH 7.4 from 90° C. to 4° C. at −1° C./min in a thermocycler. The platinated plasmid was dialyzed against H2O at 4° C. overnight and further purified by treatment with 30 U BsmBI at 55° C. for 1 h. The closed-circular form of plasmid was purified and concentrated by isopycnic centrifugation, followed by n-butanol extraction and ethanol precipitation. The plasmids were quantitated by a Quant-iT™ PicoGreen® dsDNA Kit from Invitrogen (Carlsbad, Calif.), and stored in −80° C. in TE buffer (10 mM Tris-HCl, 2 mM EDTA, pH 7.4).
(§3) Transfection of platinated plasmids into mammalian cells was carried out as reported previously (e.g., see ChemBioChem 2011, 12, 1115-1123). A549 and HeLa cells were plated at 2,000 cells per well in 96-well plates. NTera-2 and HT29 cells were plated at 4,000 cells per well in 96-well plates. MCF7 and U2OS cells were plated at 5,000 cells per well in 96-well plates. The cells were allowed to attach and grow for 48 h, and then washed with antibiotic-free culture media right before transfection. Transient transfection of the cells was carried out using Lipofectamine 2000. Briefly, 10 ng of site specifically platinated probes was included in each well. The experiments were performed in quadruplicate. The probes were diluted in OptiMEM, and Lipofectamine was diluted in OptiMEM. The two solutions were combined and incubated for 20 min. The transfection mixture was delivered into each well, and the cells were incubated for 2 h. The cells were washed with antibiotic-free culture media to remove the transfection mixture. A 100 μL volume of fresh, antibiotic-free media was added into each well to start the transcription assay. […]

[5] = tested on: Gaussia luciferase expression in HT29 cells; conditions: ratio of recovery of transcription level vs. time
Protocol: as §1, §2, §3

[6] = tested on: Gaussia luciferase expression in HeLa cells; conditions: ratio of recovery of transcription level vs. time
Protocol: as §1, §2, §3

[7] = tested on: Gaussia luciferase expression in MCF7 cells; conditions: ratio of recovery of transcription level vs. time
Protocol: as §1, §2, §3

[8] = tested on: Gaussia luciferase expression in U2OS cells; conditions: ratio of recovery of transcription level vs. time
Protocol: as §1, §2, §3

In the case of “cis-[Pt(NH3)2(phenanthridine)Cl]NO3 [phenanthriplatin]”, the IC50 [1] is reported as 35 ± 2 nM, the Pt per plasmid ([2]; rf 0.0008, 16 h at 37° C.) is reported as 12.12 Pt per plasmid and the “rb (bound Pt/nucleotide)” value ([2]; rf 0.0008, 16 h at 37° C.) is reported as 0.0015. The Pt per plasmid ([2]; rf 0.0019, 16 h at 37° C.) was 15.42 Pt per plasmid, the “rb (bound Pt/nucleotide)” value ([2]; rf 0.0019, 16 h at 37° C.) was 0.0019 and the Pt per plasmid ([2]; rf 0.0029, 16 h at 37° C.) was 24.28 Pt per plasmid. The “rb (bound Pt/nucleotide)” value ([2]; rf 0.0029, 16 h at 37° C.) was 0.0030, the Pt per plasmid ([2]; rf 0.0060, 16 h at 37° C.) was 42.80 Pt per plasmid and the “rb (bound Pt/nucleotide)” value ([2]; rf 0.0060, 16 h at 37° C.) was 0.0053. The “D0 (Pt lesions per plasmid required to reduce transcription levels to 37% of control)” value ([3]; HT29, 12 h after transfection) was 18.9 Pt/plasmid, the “D0 (Pt lesions per plasmid required to reduce transcription levels to 37% of control)” value ([3]; HT29, 48 h after transfection) was 23.5 Pt/plasmid and the “transcription level (normalized against unplatinated plasmid)” value ([3]; HT29, 60 h, Pt/DNA ratio of […] for phenanthriplatin) was 37.6%. For the same substance, the “D0 (Pt lesions per plasmid required to reduce transcription levels to 37% of control)” value ([3]; HT29, 60 h after transfection) was 25.0 Pt/plasmid, the “recovery rate of transcription (S)” value [4] was 0.263 and the “recovery rate of transcription (S)” value [5] was 0.884. For the same substance, the “recovery rate of transcription (S)” value [6] was 0.434, the “recovery rate of transcription (S)” value [7] was 0.337 and the “recovery rate of transcription (S)” value [8] was 0.805.
